From patent publication US8765774B2, “3-arylquinazolin-4-one compounds for combating invertebrate pests” (BASF SE, priority 2009, dated 2014)

Assays:
Type in all cases: in vivo
[1] = tested on: Kanzawa Spider Mite (Tetranychus kanzawai); assay: Kanzawa spider mite, sprayed potted cotton plants (II.7.a); settings: 300 ppm; population reduction assessed after 24, 72 and 120 hours; in comparison with untreated controls
Description: The active compounds were dissolved at the desired concentration in a mixture of 1:1 (vol:vol) acetone:water. The test solutions were prepared at the day of use.
Potted cotton plants colonized with approximately 50 mites of various stages were sprayed after the pest population had been recorded. Population reductions (or increases) after 24, 72 and 120 hours were assessed.

[2] = tested on: Diamond Back Moth (Plutella xylostella); assay: Diamond back moth, larvae sprayed with test solution (II.1.a); settings: 500 ppm; third-instar larvae sprayed; mortality recorded 24, 72 and 120 hours after treatment; in comparison with untreated controls
Description: The active compound was dissolved at the desired concentration in a mixture of 1:1 (vol:vol) acetone:water. The test solution was prepared at the day of use.
Ten, third-istar larvae are sprayed with 1 ml test solution and introduced to untreated leaves held in a petri dish that was lined with moist filter paper. Mortality was recorded 24, 72 and 120 hours after treatment.

[3] = tested on: Cowpea Aphid (Aphis craccivora); assay: Activity against cowpea aphid, sprayed potted cowpea plants (II.3); settings: population reduction assessed after 72 hours, in comparison with untreated controls
Description: The active compounds were formulated in 50:50 (vol:vol) acetone:water. The test solution was prepared at the day of use.
Potted cowpea plants colonized with 100-150 aphids of various stages were sprayed after the pest population had been recorded. Population reduction was assessed after 72 hours.

Structure (SMILES)	mortality [1]	further results
Cc1cc(F)c(-n2cnc3ccccc3c2=O)cc1SCC(F)(F)F [Compound I-1, 2-(2,2,2-trifluoroethylsufanyl)-4-(4-oxo-quinazolin-3-yl)-5-fluoro-toluol]	100%	–
Cc1cc(F)c(-n2cnc3ccccc3c2=O)cc1[S+]([O-])CC(F)(F)F (stereo not shown) [Compound I-2, 2-(2,2,2-trifluoroethylsufinyl)-4-(4-oxo-quinazolin-3-yl)-5-fluoro-toluol]	100%	–
Cc1cc(F)c(-n2c(C)nc3ccccc3c2=O)cc1SCC(F)(F)F [Compound I-3, 2-(2,2,2-trifluoroethylsufanyl)-4-(2-methyl-4-oxo-quinazolin-3-yl)-5-fluoro-toluol]	–	mortality [2]: 100%
O=c1c2ccccc2ncn1-c1ccnc(SCC(F)(F)F)n1 [Compound I-6, 3-[2-(2,2,2-Trifluoro-ethylsulfanyl)-pyrimidin-4-yl]-3H-quinazolin-4-one]	–	mortality at 300 ppm [3]: ≥ 50%
